Measured values taken from patent US11396531B2, “Antimicrobial peptides comprising epsilon lysine residues” (priority 2016, dated 2022).
Values after ≈ are worked out from the molar mass of the structure shown. Read-outs that look alike come from different tables or passages of the source.

Tests used:
[1] = test system: C. albicans
Procedure: (§1) MIC of cationic polymers and polypeptide were tested in accordance with the Clinical and Laboratory Standards Institute (CLSI) guidelines against a panel of antibiotic-susceptible/-resistant bacteria, yeasts and fungal strains. Bacterial and yeast strains were cultured on tryptic soy agar (TSA) and Sabaroud dextrose agar (SDA) plates (Neogen Corporation, MI, USA) overnight respectively. Inocula in Mueller-Hinton broth (MHB) for bacteria and SD broth for C. albicans (Beckton Dickinson, MD, USA) were prepared at 0.5 McFarland. The suspensions were then diluted to a final concentration of 10^5 CFU/ml in a 96-well microtitre plate (SPL Life Sciences Co., Ltd, Korea). […] The antimicrobial activities were compared with topical antiseptic agents, BAK and CHX. A similar protocol was used to determine the MIC of εPL against antibiotic-resistant pathogens. MIC of the polymers and polypeptides against Fusarium strains was determined in full strength RPMI-1640 buffer. Fungal spores were recovered from a 5-day old culture on a potato dextrose agar and diluted to a concentration of 10^5 spores/ml in 0.9% saline solution. A further 50-fold dilution was done in RPMI-1640 buffer and 100 μl of the inoculum was added to 96 well plates containing an equal volume of test peptides at 2-fold serial dilutions. 200 μl of inoculum without any additives and buffer alone served as positive and negative controls, respectively. The plate was then incubated at 30° C. for 48 h. The absorbance value was measured at 600 nm as before and the lowest concentration of the peptide which inhibited 90% growth was reported. All MIC determinations were performed in duplicates.
(§2) MICs of polymers/antibiotics were determined using the microdilution method in 96 well microtitre plates (SPL Life Sciences Co., Ltd, Korea), following the guidelines of Clinical and Laboratory Standards Institute (CLSI) document M100-S18. Briefly, polymers (1-512 μg/ml) or antibiotics were dissolved in appropriate media (Mueller Hinton broth, MHB for bacteria; Sabaroud's Dextrose (SD) broth for yeasts and RPMI buffer for Fusarium strains) and 100 μl of this was then mixed with an equal volume of microbial inoculum (OD600=˜0.08) in the same media and shaken in a closed incubator.

[2] = test system: B. cereus ATCC 11778; conditions: B. cereus ATCC 11778, Table 5
Procedure: as §1, §2

[3] = test system: Vancomycin-resistant Enterococcus (VRE); conditions: VRE (n = 21 strains), Table 5
Procedure: as §1, §2

[4] = test system: C. parapsilosis; conditions: C. parpsilosis (n = 9), Table 5
Procedure: as §1, §2

[5] = test system: C. tropicalis; conditions: C. tropicalis (n = 9), Table 5
Procedure: as §1, §2

[6] = test system: a number of micro-organisms; conditions: cited from earlier work
[7] = Calcein dye leakage from mammalian model LUVs; conditions: peptide:lipid ratio 0.0625
Procedure: To obtain an insight into the mechanism of membrane discrimination, large unilamellar vesicles (LUVs) which mimic the cytoplasmic membrane of mammalian (PC/Cholesterol) and microbial (PE:PG) cells were used. […] More dramatic results were observed when the experiments were carried out on PC/Cholesterol LUVs.

[8] = test system: red blood cells; conditions: cited from earlier work
[9] = test system: A. baumannii; experiment: microbe, parasite or virus in culture; conditions: A. baumannii (n = 10), Table 5
Procedure: as §1, §2

[10] = test system: E. cloacae complex; experiment: microbe, parasite or virus in culture
Procedure: as §1, §2

[11] = test system: Carbapenam-resistant Enterobacter strains (CRE); experiment: microbe, parasite or virus in culture; conditions: CRE (n = 19 strains), Table 5
Procedure: as §1, §2

[12] = test system: S. aureus or MRSA; type: cell-based, Staphylococcus aureus; conditions: Table 4, range over 5 strains
Procedure: as §1, with “Korea). Polymers and polypeptides were added to the inoculum in 2-fold serial dilutions to give a range of concentrations from 2-1024 μg/ml.” for “Korea).”
as §2

With `CC[C@H](C)[C@H](NC(=O)CN)C(=O)NCC(=O)N[C@@H](C)C(=O)N[C@H](C(=O)N[C@@H](CC(C)C)C(=O)N[C@@H](CCCCN)C(=O)N[C@H](C(=O)N[C@@H](CC(C)C)C(=O)N[C@H](C(=O)N[C@H](C(=O)NCC(=O)N[C@@H](CC(C)C)C(=O)N1CCC[C@H]1C(=O)N[C@@H](C)C(=O)N[C@@H](CC(C)C)C(=O)N[C@H](C(=O)N[C@@H](CO)C(=O)N[C@@H](Cc1c[nH]c2ccccc12)C(=O)N[C@H](C(=O)N[C@@H](CCCCN)C(=O)N[C@@H](CCCNC(=N)N)C(=O)N[C@@H](CCCCN)C(=O)N[C@@H](CCCNC(=N)N)C(=O)N[C@@H](CCC(N)=O)C(=O)N[C@@H](CCC(N)=O)C(N)=O)[C@@H](C)CC)[C@@H](C)CC)[C@@H](C)O)[C@@H](C)O)C(C)C)C(C)C` [Melittin] the MIC ([1]; C. albicans (n = 5), Table 5) was 2 to 4 µg/mL, the “MIC against C. albicans (n = 5)” value ([1]; Table 4, range over 5 strains) was 2 to 4 µg/mL and the MIC [2] was 8 µg/mL (≈ 2.81 µM). The MIC90 ([3]; 90% of strains susceptible) was “(MIC90 = 8)^2 μg/ml”, the MIC ([3]; range) was 0.5 to 8 µg/mL and the MIC [4] was 16 to 64 µg/mL. The MIC [5] was 8 to 64 µg/mL, the “MIC (range against a number of micro-organisms)” value ([6]; at 1 - 4 × 10^5 CFU/mL, reference 4) was 0.2 - 3 μM at 1 - and the “MIC (range against a number of micro-organisms)” value ([6]; at 1 × 10^6 CFU/mL, reference 6) was 0.5 - 8 μM at. The “MIC (range against a number of micro-organisms)” value ([6]; at 7.5 × 10^5 CFU/mL, reference 8) was 3.9 - 31.3 μM at, the “dye leakage from PC/Cholesterol LUVs” value [7] was roughly 70% and the Haemolytic activity ([8]; at 4 μM, reference 4) was 100% at 4 μM. For the same compound, the Haemolytic activity ([8]; at 5 μM, reference 8) was 50% at 5 μM, the Haemolytic activity ([8]; at 10 μM, reference 6) was greater than 80% at 10 μM and the MIC90 ([9]; 90% of strains susceptible) was “(MIC90 = 4)^2 μg/ml”. It also gave an MIC ([9]; range) of 2 to 4 µg/mL, an MIC ([10]; E. cloacae complex 6780, Table 5) of 8 µg/mL (≈ 2.81 µM) and an MIC ([10]; E. cloacae complex 44095, Table 5) of 8 µg/mL (≈ 2.81 µM). For the same compound, the MIC50 ([11]; 50% of strains susceptible) was “(MIC50 = 8)^2 μg/ml”, the MIC ([11]; range) was 8 to 32 µg/mL and the “MIC against S. aureus or MRSA (n = 5)” value [12] was 4 to 8 µg/mL.
